Target: T1, HpDnaB (Helicobacter pylori, UniProt O25916)
T1 construct: gene dnaB; recombinant in E. coli BL21 Star (DE3), pACYC-duet1 (NdeI/XhoI); monomer 59 kDa; closed hexamer proposed with DNA, dodecamer in crystal 4ZC0
T1 sequence (O25916 1-488): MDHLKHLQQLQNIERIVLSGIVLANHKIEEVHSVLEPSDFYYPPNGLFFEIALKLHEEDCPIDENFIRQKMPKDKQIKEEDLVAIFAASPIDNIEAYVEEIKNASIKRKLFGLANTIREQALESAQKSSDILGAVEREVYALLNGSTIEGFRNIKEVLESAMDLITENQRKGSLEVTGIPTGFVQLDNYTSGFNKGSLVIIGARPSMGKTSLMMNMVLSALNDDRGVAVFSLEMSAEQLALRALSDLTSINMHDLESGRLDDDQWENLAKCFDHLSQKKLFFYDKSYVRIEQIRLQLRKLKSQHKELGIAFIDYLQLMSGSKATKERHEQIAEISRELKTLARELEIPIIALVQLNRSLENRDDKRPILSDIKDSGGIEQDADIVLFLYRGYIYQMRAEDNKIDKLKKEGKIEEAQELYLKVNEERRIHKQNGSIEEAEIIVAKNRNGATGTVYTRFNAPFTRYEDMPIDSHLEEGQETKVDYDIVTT
Experiment: proton-detected […],1H solid-state NMR (hPH, […] kHz MAS); Mn2+ EDNMR/ENDOR
Format: binding
Settings: as ADP:AlF4- complex; Mg2+ and (dT)20 for hPH NMR, Mn2+ without DNA for EPR; pH 7.5; Walker A nucleotide site (S206, G208, K209, T210, S211)

## Nc1ncnc2c1ncn2[C@@H]1O[C@H](COP(=O)(O)OP(=O)(O)O)[C@@H](O)[C@H]1O [ADP]
  proton-detected 31P,1H solid-state NMR (hPH, 105 kHz MAS); Mn2+ EDNMR/ENDOR: spatial correlations between Pβ of ADP and S206, G208, K209 and T210
